The subject of data set [1] is Ca-Ski. The data set can be described thus: Cell cycle arrest in human CaSki cells assessed as DNA accumulation at sub G1 phase at IC50 after 24 hrs using propidium iodide staining by flow cytometry. The class given is functional, cell-based.
Data set [2] has as its system Ca-Ski. Briefly: Cell cycle arrest in human CaSki cells assessed as DNA accumulation at G2/M phase at IC50 after 24 hrs using propidium iodide staining by flow cytometry. Format: functional, cell-based. Background: A flow cytometer gives signals particle by particle.
The subject of data set [3] is Ca-Ski. The data set can be described thus: Cell cycle arrest in human CaSki cells assessed as DNA accumulation at S phase at IC50 after 24 hrs using propidium iodide staining by flow cytometry. The class given is functional, cell-based.
Data set [4] can be described thus: Cytotoxicity against human fibroblast cells at IC50 after 24 hrs by crystal violet staining. The class given is cell-based.
Data set [5] concerns Ca-Ski. Briefly: Induction of apoptosis in human CaSki cells assessed as fragmentation of genomic DNA at IC50 after 24 hrs by TUNEL assay. The class given is functional, cell-based.
The test system of data set [6] is Ca-Ski. The data set can be described thus: Antiproliferative activity against human CaSki cells after 24 hrs using crystal violet staining by ELISA. The class given is functional, cell-based. In general terms: In an ELISA, binding on a coated surface is turned into a signal by an enzyme label.
The subject of data set [7] is Ca-Ski. The data set can be described thus: Induction of apoptosis in human CaSki cells assessed as appearance of apoptotic bodies at IC50 after 24 hrs by DAPI staining. The class given is functional, cell-based.
Data set [8] deals with Ca-Ski. Briefly: Effect on human CaSki cell morphology assessed as formation of non-reflective small inclusion bodies at IC50 after 24 hrs by microscopy. Format: functional, cell-based.
Data set [9] deals with Ca-Ski. Briefly: Induction of necrosis of human CaSki cells assessed as LDH accumulation in culture supernatant at IC50 after 24 hrs by INT assay. The class given is functional.
Data set [10] deals with Ca-Ski. The data set can be described thus: Cell cycle arrest in human CaSki cells assessed as DNA accumulation at G1 phase at IC50 after 24 hrs using propidium iodide staining by flow cytometry. Format: functional, cell-based.
Data set [11] relates to Ca-Ski. The data set can be described thus: Induction of apoptosis in human CaSki cells assessed as increase in active caspase-3 expression at IC50 after 24 hrs by immunocytochemistry. Format: functional, cell-based.
The subject of data set [12] is Ca-Ski. The data set can be described thus: Effect on human CaSki cell morphology assessed as formation of large cells at IC50 after 24 hrs by microscopy. Format: functional, cell-based.
For data set [13], the system named is PBMC. Briefly: Induction of enriched human PBMC proliferation assessed as non-proliferating cells at IC50 after 72 hrs using CSFE labeling by flow cytometry. Format: functional.
Data set [14] has as its system PBMC. The data set can be described thus: Effect on enriched human PBMC proliferation assessed as proliferating cells at IC50 after 72 hrs using CSFE labeling by flow cytometry. The class given is functional.
Data set [15] in a line: Induction of necrosis of PHA-activated human lymphocytes assessed as LDH accumulation in culture supernatant at IC50 after 72 hrs by INT assay. The class given is cell-based. Conditions: lymphocyte.
Data set [16] has as its system Ca-Ski. Briefly: Effect on human CaSki cell morphology assessed as formation of small spherical cells at IC50 after 24 hrs by microscopy. Format: functional, cell-based.
The test system of data set [17] is Ca-Ski. Briefly: Induction of apoptosis in human CaSki cells assessed as chromatin condensation at IC50 after 24 hrs by DAPI staining. The class given is functional, cell-based.

Activity calls are given as the source filed them. No cut-off for these calls is given here.

In general, IC50 refers to the concentration that inhibits the measured activity by half.

For `CC(=O)O[C@H]1CC[C@@]2(C)[C@@H](CC[C@@H]3[C@@H]2CC(=O)[C@]2(C)[C@@H]([C@H](C)C(=O)CC[C@@H](C)CO)[C@@H](OC(C)=O)C[C@@H]32)C1`, the result in data set [1], in [3], in data set [5], in [7], in data set [8] and in [11] was Active. Further, the result in data set [12] was Active. In addition, the result in data set [2] and in data set [10] was inactive. Also, the Activity in [4] is 18%; in data set [6], “Dose-dependent effect”; in data set [9], 28%; in [13], 36.34%; in data set [14] it was 63.68%; in data set [15], “Not Active”. The IC50 in data set [6] was found to be 188 µM.
Consider `CC(=O)O[C@H]1CC[C@@]2(C)C(=CC[C@H]3[C@@H]4C[C@H](OC(C)=O)[C@H]([C@H](C)C(=O)CC[C@@H](C)CO)[C@@]4(C)CC[C@@H]32)C1`, for which the outcome in data set [1], in data set [2], in data set [3], in data set [16], in data set [17] and in data set [10] was Active. For the same compound, in data set [11], the outcome was Active. Further, the Activity result in [4] is “Not Active”; in data set [6] it was “Dose-dependent effect”; in [13], 23.85%; in data set [14], 76.15%; in [15] it was “Not Active”. Further, the result in data set [5] and in data set [9] was inactive. In data set [6], this compound yielded a concentration for half-maximal inhibition (IC50) of 47.1 µM.

Values taken from ChEMBL document CHEMBL1156164, “Synthesis of 26-hydroxy-22-oxocholestanic frameworks from diosgenin and hecogenin and their in vitro antiproliferative and apoptotic activity on human cervical cancer CaSki cells” (Bioorg Med Chem, 2010).
